{"source": "ChEMBL document CHEMBL5506003", "about": "“Design and biological evaluation of dual tubulin/HDAC inhibitors based on millepachine for treatment of prostate cancer” (Eur J Med Chem, 2024)", "key": {"MDA-MB-231": {"system": "MDA-MB-231", "assay": "Cytotoxicity against human MDA-MB-231 cells incubated for 72 hrs by MTT assay", "format": "functional, cell-based", "conditions": "MDA-MB-231, 72 h"}, "PC-3 [1]": {"system": "PC-3", "assay": "Cytotoxicity against human PC-3 cells incubated for 72 hrs by MTT assay", "conditions": "PC-3, 72 h"}, "U-251": {"system": "U-251", "assay": "Cytotoxicity against human U-251 cells incubated for 72 hrs by MTT assay", "conditions": "U-251, 72 h"}, "Histone deacetylase 7": {"target": "T1, Histone deacetylase 7 (Homo sapiens, UniProt Q8WUI4)", "T1 sequence (Q8WUI4 whole entry)": "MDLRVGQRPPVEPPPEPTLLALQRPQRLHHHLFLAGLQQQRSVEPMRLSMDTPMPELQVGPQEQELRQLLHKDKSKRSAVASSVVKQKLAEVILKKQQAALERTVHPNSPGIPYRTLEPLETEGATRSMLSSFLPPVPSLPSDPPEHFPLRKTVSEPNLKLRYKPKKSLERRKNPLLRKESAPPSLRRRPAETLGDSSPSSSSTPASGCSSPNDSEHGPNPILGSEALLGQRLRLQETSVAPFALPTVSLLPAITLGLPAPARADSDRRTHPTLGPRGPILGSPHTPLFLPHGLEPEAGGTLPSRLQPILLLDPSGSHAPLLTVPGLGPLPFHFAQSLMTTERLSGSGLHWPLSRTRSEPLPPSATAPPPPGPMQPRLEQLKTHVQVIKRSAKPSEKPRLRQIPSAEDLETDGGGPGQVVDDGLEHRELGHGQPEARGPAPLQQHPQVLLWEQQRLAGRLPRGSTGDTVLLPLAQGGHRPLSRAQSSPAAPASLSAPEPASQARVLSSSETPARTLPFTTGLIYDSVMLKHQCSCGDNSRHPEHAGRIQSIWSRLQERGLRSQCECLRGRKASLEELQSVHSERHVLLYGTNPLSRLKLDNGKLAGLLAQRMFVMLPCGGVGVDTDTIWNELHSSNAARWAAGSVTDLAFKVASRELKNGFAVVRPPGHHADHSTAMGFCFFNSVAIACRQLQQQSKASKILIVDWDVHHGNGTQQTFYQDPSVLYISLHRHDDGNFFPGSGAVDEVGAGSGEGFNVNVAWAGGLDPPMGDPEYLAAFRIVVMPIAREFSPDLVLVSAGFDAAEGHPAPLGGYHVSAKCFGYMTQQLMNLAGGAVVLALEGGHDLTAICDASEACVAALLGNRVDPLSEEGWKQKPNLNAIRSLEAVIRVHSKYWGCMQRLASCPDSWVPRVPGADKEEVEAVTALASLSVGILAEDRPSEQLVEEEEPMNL", "assay": "Inhibition of HDAC7 in human HeLa nuclear extracts incubated for 30 mins by fluorescence based assay", "format": "cell-free"}, "PC-3 [2]": {"system": "PC-3", "assay": "Inhibition of colony formation in human PC-3 cells at 5 nM incubated for 24 hrs followed by replacement with fresh media and measured after 2 weeks by crystal violet staining based assay", "format": "functional, cell-based"}, "Tubulin (Homo sapiens) [3]": {"target": "T2, Tubulin (Homo sapiens) (UniProt P68371+Q9H4B7+P0DPH7+P68366+Q13509+Q71U36+P04350+Q3ZCM7+P07437+P68363+Q9BQE3+Q6PEY2+Q13885+Q9BVA1+Q9BUF5)", "assay": "Inhibition of microtubule polymerization in human PC-3 cells assessed as fragmented microtubule filaments at 0.32 uM incubated for 6 hrs by immunofluorescent staining based confocal microscopy assay", "format": "cell-based"}, "Tubulin (Homo sapiens) [4]": {"target": "T2, Tubulin (Homo sapiens)", "assay": "Inhibition of microtubule polymerization in human PC-3 cells assessed as disorganized microtubule filaments at 0.32 uM incubated for 6 hrs by immunofluorescent staining based confocal microscopy assay", "format": "cell-based"}, "Histone deacetylase 2": {"target": "Histone deacetylase 2 (Homo sapiens, UniProt Q92769)", "sequence (Q92769 whole entry)": "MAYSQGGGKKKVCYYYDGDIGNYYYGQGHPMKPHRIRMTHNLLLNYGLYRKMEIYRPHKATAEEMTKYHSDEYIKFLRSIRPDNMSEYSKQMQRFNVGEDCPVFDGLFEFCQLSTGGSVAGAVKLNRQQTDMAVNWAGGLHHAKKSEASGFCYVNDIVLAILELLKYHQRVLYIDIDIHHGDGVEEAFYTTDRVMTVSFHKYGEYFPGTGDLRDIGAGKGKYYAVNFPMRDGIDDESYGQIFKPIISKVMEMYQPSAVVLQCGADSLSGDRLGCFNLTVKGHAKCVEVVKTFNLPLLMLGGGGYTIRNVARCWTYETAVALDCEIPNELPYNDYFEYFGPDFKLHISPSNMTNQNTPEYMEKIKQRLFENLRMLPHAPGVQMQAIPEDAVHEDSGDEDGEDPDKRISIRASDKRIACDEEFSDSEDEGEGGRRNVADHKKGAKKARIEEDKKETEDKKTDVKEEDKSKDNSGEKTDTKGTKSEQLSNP", "assay": "Inhibition of HDAC2 in human PC-3 cells assessed as increase in acetylated Histone-H3 level incubated for 24 hrs by Western blotting assay", "format": "cell-based", "conditions": "dose 0.08-0.32 µM"}, "PC-3 [5]": {"system": "PC-3", "assay": "Induction of cell cycle arrest in human PC-3 cells assessed as G1 phase cells at 0.08 uM incubated for 24 hrs by PI staining based flow cytometry analysis (reference value: 56.17%)", "format": "functional"}, "PC-3 [6]": {"system": "PC-3", "assay": "Induction of cell cycle arrest in human PC-3 cells assessed as S phase cells at 0.08 uM incubated for 24 hrs by PI staining based flow cytometry analysis (reference value: 31.7%)", "format": "functional"}, "PC-3 [7]": {"system": "PC-3", "assay": "Induction of cell cycle arrest in human PC-3 cells assessed as S phase cells at 0.16 uM incubated for 24 hrs by PI staining based flow cytometry analysis (reference value: 31.7%)", "format": "functional"}, "PC-3 [8]": {"system": "PC-3", "assay": "Induction of cell cycle arrest in human PC-3 cells assessed as S phase cells at 0.32 uM incubated for 24 hrs by PI staining based flow cytometry analysis (reference value: 31.7%)", "format": "functional"}, "PC-3 [9]": {"system": "PC-3", "assay": "Induction of cell cycle arrest in human PC-3 cells assessed as decrease in phosphorylated […] Tyr15 by Western blotting analysis", "format": "functional, cell-based", "conditions": "dose 0.08-0.32 µM"}, "PC-3 [10]": {"system": "PC-3", "assay": "Induction of apoptosis in human PC-3 cells assessed as necrotic cells at 0.08 uM incubated for 24 hrs by Annexin V-FITC and PI staining based flow cytometry (reference value: 0.13%)", "format": "functional"}, "PC-3 [11]": {"system": "PC-3", "assay": "Induction of apoptosis in human PC-3 cells assessed as viable cells at 0.16 uM incubated for 24 hrs by Annexin V-FITC and PI staining based flow cytometry (reference value: 97.5%)", "format": "functional", "conditions": "read-out: Activity"}, "PC-3 [12]": {"system": "PC-3", "assay": "Induction of apoptosis in human PC-3 cells assessed as early apoptotic cells at 0.16 uM incubated for 24 hrs by Annexin V-FITC and PI staining based flow cytometry (reference value: 1.32%)", "format": "functional"}, "PC-3 [13]": {"system": "PC-3", "assay": "Induction of apoptosis in human PC-3 cells assessed as late apoptotic cells at 0.16 uM incubated for 24 hrs by Annexin V-FITC and PI staining based flow cytometry (reference value: 1.02%)", "format": "functional"}, "PC-3 [14]": {"system": "PC-3", "assay": "Induction of apoptosis in human PC-3 cells assessed as upregulation of cleaved PARP expression at 0.08 to 0.32 uM by Western blotting analysis", "format": "functional, cell-based", "conditions": "dose 0.08-0.32 µM"}, "PC-3 [15]": {"system": "PC-3", "assay": "Induction of mitochondrial membrane potential loss in human PC-3 cells assessed as increase in monomer JC-1 level by measuring green fluorescence intensity at 0.08 uM incubated for 24 hrs by JC-1 staining based flow cytometry analysis (reference value: 6.44%)", "format": "functional"}, "PC-3 [16]": {"system": "PC-3", "assay": "Induction of mitochondrial membrane potential loss in human PC-3 cells assessed as decrease in JC-1 aggregate level by measuring red fluorescence intensity at 0.32 uM incubated for 24 hrs by JC-1 staining based flow cytometry analysis (reference value: 93.5%)", "format": "functional", "parameters": "scale not given: the % may be the effect or the level left"}, "PC-3 [17]": {"system": "PC-3", "assay": "Induction of ROS generation in human PC-3 cells at 0.16 uM incubated for 24 hrs by DCFH-DA staining based flow cytometry analysis (reference value: 2.63%)", "format": "functional"}, "A549": {"system": "A549", "assay": "Inhibition of cell migration in human A549 cells incubated for 24 hrs by scratch wound healing method", "format": "functional, cell-based", "conditions": "dose 0.4-1.6 µM"}, "[18]": {"assay": "Toxicity in BALB/c nude mouse xenografted with human PC-3 cells assessed as lung damage at 10 to 20 mg/kg, iv administered every 2 days and measured after 3 weeks", "format": "organism-based", "conditions": "in vivo, 504 h, dose 10-20 mg/kg"}, "[19]": {"assay": "Half-life in Sprague-Dawley rat at 2 mg/kg, iv measured upto 24 hrs by HPLC-MS analysis", "format": "ADME, organism-based", "conditions": "in vivo"}, "[20]": {"assay": "AUC(0 to t) in Sprague-Dawley rat at 2 mg/kg, iv measured upto 24 hrs by HPLC-MS analysis", "format": "ADME, organism-based", "conditions": "in vivo"}}, "note": "The source made the active and inactive calls. No cut-off for these calls is given here."}
{"compound": "COc1ccc(/C=C/C(=O)c2ccc(OC)c3c2OC(C)(C)C=C3)cc1NCC(=O)NO", "values": [{"measurement": "IC50", "setting": "MDA-MB-231", "value": 340, "unit": "nM"}, {"measurement": "IC50", "setting": "PC-3 [1]", "value": 16, "unit": "nM"}, {"measurement": "IC50", "setting": "U-251", "value": 150, "unit": "nM"}, {"measurement": "IC50", "setting": "Histone deacetylase 7", "value": 2340, "unit": "nM"}, {"measurement": "inhibition", "setting": "PC-3 [2]", "value": "Active"}, {"measurement": "inhibition", "setting": "Tubulin (Homo sapiens) [3]", "value": "Active"}, {"measurement": "inhibition", "setting": "Tubulin (Homo sapiens) [4]", "value": "Active"}, {"measurement": "inhibition", "setting": "Histone deacetylase 2", "value": "Dose-Dependent Effect"}, {"measurement": "Activity", "setting": "PC-3 [5]", "value": 34.64, "unit": "%"}, {"measurement": "Activity", "setting": "PC-3 [6]", "value": 39.9, "unit": "%"}, {"measurement": "Activity", "setting": "PC-3 [7]", "value": 28.7, "unit": "%"}, {"measurement": "Activity", "setting": "PC-3 [8]", "value": 10.6, "unit": "%"}, {"measurement": "Activity", "setting": "PC-3 [9]", "value": "Active"}, {"measurement": "Activity", "setting": "PC-3 [10]", "value": 0.041, "unit": "%"}, {"measurement": "viability at 0.16 µM", "setting": "PC-3 [11]", "value": 78.8, "unit": "%"}, {"measurement": "Activity", "setting": "PC-3 [12]", "value": 15.5, "unit": "%"}, {"measurement": "Activity", "setting": "PC-3 [13]", "value": 5.28, "unit": "%"}, {"measurement": "Activity", "setting": "PC-3 [14]", "value": "Active"}, {"measurement": "Activity", "setting": "PC-3 [15]", "value": 10.6, "unit": "%"}, {"measurement": "Activity", "setting": "PC-3 [16]", "value": 58.9, "unit": "%"}, {"measurement": "Activity", "setting": "PC-3 [17]", "value": 75.4, "unit": "%"}, {"measurement": "inhibition", "setting": "A549", "value": "Dose-Dependent Effect"}, {"measurement": "Activity", "setting": "[18]", "value": "Non-Toxic"}, {"measurement": "half-life", "setting": "[19]", "value": 54.6, "unit": "min"}, {"measurement": "AUCt", "setting": "[20]", "value": 9084, "unit": "µg/L/h"}]}
